Reference: patent publication US12575572B2, “Systems, methods, and apparatuses for disinfection and decontamination” (priority 2020, dated 2026)

Test system: Phi6 bacteriophage (surrogate for Coronavirus and Ebola)

## [O][Cl+][O-] [ClO2, chlorine dioxide]
  virions recovered from treated coupons: no virions were recovered
